Test results as given in paper PMC4865820, “Branched Peptide, B2088, Disrupts the Supramolecular Organization of Lipopolysaccharides and Sensitizes the Gram-negative Bacteria” (Scientific Reports, 2016).
Positions of bridges follow the written chain, without caps; N, C: chain ends. Non-standard residues stand in square brackets, D forms with d. Residues, ends and D or L forms follow the SMILES beside them. Chains are numbered I, II in the order given. *: point of attachment. X1 = CC[C@H](C)CCCCC(=O)*; Dab = NCC[C@H](N)C(=O)O

Columns and labels:
lipid A = experiment: BODIPY TR cadaverine (BC) displacement assay with lipid A; format: binding; details: 5 mM HEPES pH 7.4; fluorescence ex 580/em 620 nm
From the text: To investigate the interaction of B2088 with LPS, we performed the BODIPY TR cadaverine (BC) displacement assay reported by Wood et al.[22]. The probe binds to the lipid A part of the LPS with moderate affinity and can be displaced by putative LPS-binding molecules. The method was used to probe the affinity of polycationic molecules and LPS binding proteins. First, we determined the affinity of polymyxin B (PMB), a lipopeptide cyclic antibiotic which has a high affinity for LPS. […] Figure 1a,b show the concentration-dependent displacement of LPS/lipid A-bound BC upon addition of B2088. […] To confirm the importance of branching, we determined the BC50 for a linear retrodimer having the amino acid sequence, […] (Fig. 1d). […]
The BC displacement assay was used to determine the ability of each peptide to bind to LPS. […] The maximum fluorescence intensity (Fmax) was determined using a mixture containing 100 μl PMB (50 μg/ml) and 100 μl BC:LPS solution, as PMB is considered the ‘gold standard’ for LPS-sequestering agents. The minimum fluorescence intensity (F0) was measured using 200 μl of BC:LPS mixture to determine the background noise for this experiment. Fluorescence measurements for each peptide (F) were determined using a microplate reader (Model: TECAN Infinite 200, Austria) with excitation and emission wavelengths set at 580 nm and 620 nm respectively. […]

FITC-labelled LPS = experiment: FITC-LPS fluorescence interaction assay; format: binding; details: 5 μg/ml FITC-LPS, ex 485/em 515 nm, 25 °C
From the text: To confirm the findings from ITC experiments, we examined the ultrastructure of LPS or the LPS/B2088 complex by electron microscopy. TEM analysis of the LPS indicated a ribbon-like structure (Fig. 3a), consistent with previous studies. For the LPS-B2088 complex, the peptide:LPS ratios were chosen to epitomize the initial (high peptide:LPS) or final (low peptide:LPS) injections of the ITC curves shown in Fig. 2a–c. At low peptide:LPS ratio (~0.04), more electron-dense surface appeared presumably due to binding of the peptide to LPS may cause partial/complete neutralization of the negative charges and the ribbon-like structure of LPS remained intact (Fig. 3b). […]
The interaction between FITC-LPS was determined by monitoring the change in fluorescence emission intensity (λex = 485 nm and λem = 515 nm) using a Quanta Master spectrophotometer (Photon Technology International, NJ, USA) with a constant slit width of 0.5 nm at 25 °C. Briefly, the emission intensity of 5 μg/ml of FITC-LPS was monitored continuously in a 1 ml cuvette until it remained constant. 10 μl a concentrated stock solution of B2088 was added and the changes in fluorescence intensity were recorded as before.

[1] = system: human corneal epithelial (hTCEpi) cells
From the text: To assess the safety of B2088 as a part of preclinical assessment, we used the xCELLigence system for the real-time analysis of cytotoxicity.

[2] = system: LPS (E. coli serotype 055:B5); details: ref Torrent et al. [24]; cited from earlier work
From the text: To investigate the interaction of B2088 with LPS, we performed the BODIPY TR cadaverine (BC) displacement assay reported by Wood et al.[22]. The probe binds to the lipid A part of the LPS with moderate affinity and can be displaced by putative LPS-binding molecules. The method was used to probe the affinity of polycationic molecules and LPS binding proteins. First, we determined the affinity of polymyxin B (PMB), a lipopeptide cyclic antibiotic which has a high affinity for LPS.

In the case of `CC(C)[C@H](NC(=O)[C@H](CCCCN)NC(=O)[C@H](CCCNC(=N)N)NC(=O)CNC(=O)[C@@H](N)CCCNC(=N)N)C(=O)N[C@H](C(=O)N[C@@H](CCCNC(=N)N)C(=O)N[C@@H](CCCNC(=N)N)C(=O)NCCCC[C@H](NC(=O)[C@H](CCCNC(=N)N)NC(=O)[C@H](CCCNC(=N)N)NC(=O)[C@@H](NC(=O)[C@@H](NC(=O)[C@H](CCCCN)NC(=O)[C@H](CCCNC(=N)N)NC(=O)CNC(=O)[C@@H](N)CCCNC(=N)N)C(C)C)C(C)C)C(=O)N[C@@H](CCCCN)C(=O)O)C(C)C` [B2088] (I: H-RGRKVVRRKK-OH / II: H-RGRKVVRR; amide I:9-II:C; N-terminus and C-terminus assumed), the “ED50 (50% displacement of BC dye from lipid A)” value (lipid A) is reported as 700 ± 140 nM, the “Peptide concentration above which dequenching of FITC-LPS fluorescence occurred” value (FITC-labelled LPS) is reported as “above 25 μg/ml” and the “Change in CI values with time” value [1] is reported as “significant increase in CI values”.

In the case of `CC[C@H](C)CCCCC(=O)N[C@@H](CCN)C(=O)N[C@H](C(=O)N[C@@H](CCN)C(=O)N[C@H]1CCNC(=O)[C@H]([C@@H](C)O)NC(=O)[C@H](CCN)NC(=O)[C@H](CCN)NC(=O)[C@H](CC(C)C)NC(=O)[C@@H](Cc2ccccc2)NC(=O)[C@H](CCN)NC1=O)[C@@H](C)O` [Polymyxin B, polymyxin B, reference compound] (X1-[Dab]T[Dab][Dab][Dab][dF]L[Dab][Dab]T; lactam 4-C (inferred); N-terminus assumed), the “ED50 (BC displacement from LPS), literature value” [2] is given as 2500 ± 100 nM.
